Test results taken from patent EP4722203A1, “3,4-DIHYDROPHTHALAZIN-1(2H)-ONE DERIVATIVE, AND PREPARATION METHOD THEREFOR AND USE THEREOF” (Academy of Military Medical Sciences, priority 2023, dated 2024).

Columns and labels:
[1] = tested on: WSU-DLCL-2 cells; assay: Antiproliferative activity, CCK-8 assay; type: cell-based; conditions: Homo sapiens, WSUDLCL2; 144 hours incubation, CCK-8, absorbance at 450 nm
Description: (§1) The cell models used in this example were human hematologic tumor cells, including NCI-H929, RPMI-8226, MV-4-11, U937 and WSU-DLCL-2. Some of the compounds of the present invention were selected to determine their inhibitory activity against the proliferation of NCI-H929, RPMI-8226, MV-4-11, U937, and WSU-DLCL-2 cells.
(§2) • ① The selected compounds were dissolved in DMSO to prepare 10 mM stock solutions. Compounds used within three months should be stored at room temperature in a desiccator; others could be stored at -20°C for long-term storage. • ② The above stock solutions and the positive reference compound pomalidomide were diluted with DMSO. Their initial concentrations were 10 µM. In the experiments of NCI-H929 and RPMI-8226 cells, 3-fold serial dilution with 11 concentration points was performed, with the lowest concentration of 0.00047 µM. The resulting solutions were shaken on a shaker for 5 minutes.
(§3) • ① The NCI-H929, RPMI-8226, MV-4-11, U937, and WSU-DLCL-2 cells in logarithmic growth phase were inoculated in a 96-well plate, 20,000 to 30,000 cells per well, and the plate was pre-cultured for 24 hours in an incubator (at 37°C and 5% CO2). • ② The culture medium in the plate was replaced, and the compounds and the positive control with corresponding concentrations were added to the plated at a volume of 50 µl. • ③ The plate was incubated for 144 hours in an incubator, then 15 µl of CCK-8 solution was added to each well, and incubated in the incubator for another 1-4 hours. • ④ The absorbance at 450 nm was measured using a microplate reader.
(§4) • ① Calculating % Inhibition: [formula] • ② Calculating IC50 value of compound and plotting dose-response curve: The IC50 value was calculated by fitting the % Inhibition and the logarithm of compound concentration to a nonlinear regression (dose response-variable slope) by using GraphPad 6.0. • Y = Bottom + (Top - Bottom) / (1 + 10^((LogIC50 - X) * HillSlope)) • X: log of inhibitor concentration; Y: % Inhibition.
(§5) After calculating % Inhibition, a dose-response curve was plotted with the logarithm of the test compound concentration as the x-axis and the average cell viability as the y-axis, and the IC50 value was obtained by fitting.

[2] = tested on: U937 cells; assay: Antiproliferative activity, CCK-8 assay; type: cell-based; conditions: Homo sapiens, U-937; 144 hours incubation, CCK-8, absorbance at 450 nm
Description: as §1, §2, §3, §4, §5

[3] = tested on: NCI-H929 cells; assay: Antiproliferative activity, CCK-8 assay; type: cell-based; conditions: Homo sapiens, 144 hours incubation, CCK-8, absorbance at 450 nm, read-out: IC50 (µM) H-929
Description: as §1, §2, §3, §4, §5

[4] = tested on: MV-4-11 cells; assay: Antiproliferative activity, CCK-8 assay; type: cell-based; conditions: Homo sapiens, MV4-11; 144 hours incubation, CCK-8, absorbance at 450 nm
Description: as §1, §2, §3, §4, §5

[5] = tested on: human multiple myeloma RPMI-8226 xenograft tumors; assay: In vivo activity against RPMI-8226 transplanted tumor; set-up: species or system NOD/SCID mice; conditions: 10 mg/kg, QD; for Tumor inhibition rate TGI (%) / Volume (mm^3), 0 days / Volume (mm^3), 12 days: oral gavage; for Tumor inhibition rate TGI (%): 12 consecutive days; for Volume (mm^3), 0 days: tumor volume at 0 days (baseline); for Volume (mm^3), 12 days: tumor volume at 12 days
Description: In this example, human multiple myeloma RPMI-8226 cell line was used as the cell model. The inhibitory effects of compounds on the growth of NOD/SCID mouse transplanted tumors of RPMI-8226 tumor cells were determined. The evaluation methods and results are described below.
Human multiple myeloma RPMI-8226 cells were routinely cultured in RPMI1640 containing 10% fetal bovine serum at 37°C in a 5% CO2 incubator. After three passages in vitro, when the cells reached over 80% confluence and the required confluence rate, the cells were digested and harvested. After washing with PBS, the cells were counted and the cell concentration was adjusted to approximately 5 × 10^7 cells/mL. The cells were then placed in 4 mL centrifuge tubes on ice for later use.
Female NOD/SCID mice aged 4-5 weeks were selected and subcutaneously inoculated with RPMI-8226 cells ectopically. The mice were held in a lateral position, the forelimb axilla was disinfected with 75% alcohol, and 100 µL of the cell suspension was injected subcutaneously into the axilla using a 1 mL syringe ([…]/100 µL).
Once the tumors grew to 90-150 mm^3, the animals were randomly grouped, 8 mice per group, and administered according to different administration methods as follows: • Model control group: administered with the same volume of Vehicle (DMSO: 0.5% sodium carboxymethyl cellulose: distilled water = 1:1:8) daily by gavage; • Test groups: administered with compound I-4 and compound I-8 solutions at 10 mg/kg (mouse body weight) daily by gavage, respectively; • Positive control group: administered with pomalidomide solution at 10 mg/kg (mouse body weight) daily by gavage.
The route of administration was oral gavage, and the administration frequency was once daily, for 12 consecutive days. The first day of administration was defined as Day 1 of the experiment. Tumor volume changes in mice were measured and recorded every two days. Tumor volume was measured using a vernier caliper, in which the major axis (a) and minor axis (b) of the tumor were measured, and the tumor volume was calculated as: tumor volume V (mm^3) = a x b^2/2. After the experiment, the mice were dissected and the tumor weight was measured. The data were entered and statistically analyzed using GraphPad Prism 6 software. The data are expressed as mean ± SEM (Standard Error of Mean), and one-way ANOVA was used. P ≤ 0.05 was considered statistically significant.

Question: With `CN1Cc2c(NCc3ccc(CN4CCN(c5ccc(C#N)c(F)c5)CC4)cc3)cccc2C(=O)N1C1CCC(=O)NC1=O` (centres unmarked) [I-8] as the compound, how does the IC50 [1] read?
Answer: The IC50 was 0.017 µM.

Question: And the IC50 [2]?
Answer: Its IC50 is 0.0088 µM.

Question: And the IC50 [3]?
Answer: The IC50 was 0.0039 µM.

Question: What about the IC50 [4] of the same compound?
Answer: Its IC50 is 0.0058 µM.

Question: And the “growth of RPMI-8226 transplanted tumors (in words)” value [5]?
Answer: The value was “significantly inhibit the growth”.

Question: And the “Tumor inhibition rate TGI (%)” value [5]?
Answer: The value was 80.13%.

Question: And the “Volume (mm^3), 0 days” value [5]?
Answer: The value was 257.5 mm^3.

Question: What about the “Volume (mm^3), 12 days” value [5] of the same compound?
Answer: The value was 520.3 mm^3.

Question: `CN1Cc2c(N)cccc2C(=O)N1C1CCC(=O)NC1=O` (centres unmarked) [I-4, 3-(5-amino-3-methyl-1-oxo-3,4-dihydrophthalazin-2(1H)-yl)piperidin-2,6-dione] was tested. Which IC50 [1] did it give?
Answer: Its IC50 is 1.21 µM.

Question: What about the IC50 [2] of the same compound?
Answer: The IC50 was 0.31 µM.

Question: What about the IC50 [3] of the same compound?
Answer: The IC50 was 0.116 µM.

Question: And the IC50 [4]?
Answer: Its IC50 is 0.183 µM.

Question: What about the “growth of RPMI-8226 transplanted tumors (in words)” value [5] of the same compound?
Answer: The value was “significantly inhibit the growth”.

Question: What about the “Tumor inhibition rate TGI (%)” value [5] of the same compound?
Answer: Its value is 73.38%.

Question: And the “Volume (mm^3), 0 days” value [5]?
Answer: The value was 189.0 mm^3.

Question: What about the “Volume (mm^3), 12 days” value [5] of the same compound?
Answer: The value was 541.1 mm^3.

Question: How did the IC50 [1] turn out when `Nc1cccc2c1C(=O)N(C1CCC(=O)NC1=O)C2=O` (centres unmarked) [Pomalidomide, reference compound] was run?
Answer: Its IC50 is > 10 µM.

Question: What about the IC50 [2] of the same compound?
Answer: Its IC50 is 2.53 µM.

Question: And the IC50 [3]?
Answer: The IC50 was 3.91 µM.

Question: What about the IC50 [4] of the same compound?
Answer: Its IC50 is > 10 µM.

Question: What about the “Tumor inhibition rate TGI (%)” value [5] of the same compound?
Answer: Its value is 47.80%.

Question: And the “Volume (mm^3), 0 days” value [5]?
Answer: Its value is 180.0 mm^3.

Question: And the “Volume (mm^3), 12 days” value [5]?
Answer: Its value is 870.4 mm^3.
